Data from paper PMC11284787, “Ligand-Directed Labeling of the Adenosine A1 Receptor in Living Cells” (Journal of Medicinal Chemistry, 2024).

How the values were obtained:
[1] = Fluorescence correlation spectroscopy in solution (HBSS); assay type: physicochemical
Procedure: The suitability of probe 11 for use with FCS was initially tested by recording 10 × 10 s trace reads in solution (100 nM in HBSS) (Figure S4). […] A 488 nm […] laser was used to excite SNAP-AF488 and the emission […] The pinhole diameter (1 Airy Unit; 1.1 μm optical slice), laser power and gain was kept constant in all the experiments. Images were acquired as 16-bit depth, 1024x1024 pixel resolution with a line averaging of 8 (or 2) and a pixel dwell time 4.12 µs (set to 5). Images were either processed in Zeiss ZEN 2 (blue edition) or FIJI (ImageJ) version 2.0.0 software, and linear adjustments to the brightness and contrast have been applied equally across all the images. To obtain membrane intensity values, regions of interest were drawn by hand around regions of cell membranes in FIJI (ImageJ)10 version 2.0.0 software. Fluorescence Correlation Spectroscopy. […] After that time, cells were washed 3x with warm HBSS over the course of 20 min, followed by the addition of 300 µL HBSS, left to cool to 24 OC and used in Fluorescence Correlation Spectroscopy (FCS) studies. […] For solution-based reads 10 x 10s trace measurements were taken within 200 µL sample with the confocal observation volume placed 200 µm above the coverslip. For apical membrane reads, 3 x 30s trace measurements at ~0.5 kW/cm2 laser power were taken on the apical membrane with its position determined as the peak of a point intensity S9 page 10: Z-scan utilising an argon 488 nm laser excitation, at ~0.5kW/cm2 laser power, detecting […] The placement was lowered by 0.2 µm to account for the optical chromatic offset between the 488 nm and 633 nm detection previously determined for our microscope set-up. Autocorrelation curves (AC) were constructed from fluorescence fluctuation traces and analysed within Zen Black (2012) software. […] Fluorescence fluctuation traces were reanalysed with Photon Counting Histogram analysis to determine the average molecular brightness of detected species. […]

[2] = target: T1, NL-hA1AR (Homo sapiens, UniProt P30542); experiment: NanoBRET competition ligand-binding assay (CA200645 tracer), NL-hA1AR
T1 construct: expressed in transfected cells
T1 sequence (P30542 1-326): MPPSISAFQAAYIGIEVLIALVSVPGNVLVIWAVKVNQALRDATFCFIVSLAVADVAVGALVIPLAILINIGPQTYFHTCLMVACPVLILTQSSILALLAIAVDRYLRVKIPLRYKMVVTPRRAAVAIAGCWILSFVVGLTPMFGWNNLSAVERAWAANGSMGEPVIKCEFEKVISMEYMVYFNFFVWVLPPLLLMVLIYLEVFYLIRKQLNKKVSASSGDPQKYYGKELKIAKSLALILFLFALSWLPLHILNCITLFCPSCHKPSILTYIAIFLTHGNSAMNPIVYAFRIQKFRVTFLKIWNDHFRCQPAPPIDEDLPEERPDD

| SMILES | dwell time in solution (FCS, 3D diffusion model) ([1]; 100 nM in HBSS) [μs] | diffusion coefficient, D, in solution ([1]; 100 nM in HBSS, calibrated with Cy5) [μm^2/s] | PCH analysis, state in solution ([1]; 1-component fit, HBSS) | Ki ([2]; CA200645 (25 nM) tracer, HEK293T cells, mean ± SEM, read-out: affinity values pKi, NL-hA1AR (converted)) [nM] | greater affinity for NL-A1AR over NL-A2AAR (competition binding) ([2]; selectivity from pKi values) [fold] | greater affinity for NL-A1AR over NL-A2BAR (competition binding) ([2]; selectivity from pKi values) [fold] | greater affinity for NL-A1AR over NL-A3AR (competition binding) ([2]; selectivity from pKi values) [fold] |
| --- | --- | --- | --- | --- | --- | --- | --- |
| CCCCn1c(=O)c2[nH]c(C34CCC(C(=O)NCCNC(=O)CCNC(=O)c5ccc(OC(=O)CCCCC[N+]6=C(/C=C/C=C/C=C7/N(C)c8ccc(S(=O)(=O)O)cc8C7(C)C)C(C)(C)c7cc(S(=O)(=O)[O-])ccc76)c(F)c5)(CC3)CC4)nc2n(CCCC)c1=O [Compound 11, 1-(6-(4-((3-((2-(4-(1,3-Dibutyl-2,6-dioxo-2,3,6,7-tetrahydro-1H-purin-8-yl)bicyclo[2.2.2]octane-1-carboxamido)ethyl)amino)-3-oxopropyl)carbamoyl)-2-fluorophenoxy)-6-oxohexyl)-3,3-dimethyl-2-((1E,3E)-5-((E)-1,3,3-trimethyl-5-sulfoindolin-2-ylidene)penta-1,3-dien-1-yl)-3H-indol-1-ium-5-sulfonate] | 117.6 ± 17.6 | 142.7 ± 17.3 | single species with no aggregation | – | – | – | – |
| CCCCn1c(=O)c2[nH]c(C34CCC(C(=O)NCCNC(=O)CCNC(=O)c5ccc(OC(=O)CCC(=O)NCCOCCOCCNC(=O)O[C@H]6CC/C=C/CCC6)c(F)c5)(CC3)CC4)nc2n(CCCC)c1=O [Compound 12, 4-((3-((2-(4-(1,3-Dibutyl-2,6-dioxo-2,3,6,7-tetrahydro-1H-purin-8-yl)bicyclo[2.2.2]octane-1-carboxamido)ethyl)amino)-3-oxopropyl)carbamoyl)-2-fluorophenyl (R,E)-1-(Cyclooct-4-en-1-yloxy)-1,12-dioxo-5,8-dioxa-2,11-diazapentadecan-15-oate] | – | – | – | 13.5 | 104 | 61 | 857 |
